Assay results published in patent US10391201B2, “Gene therapy” (Ospedale San Raffaele S.r.l., priority 2014, dated 2019).

System: Human cord blood-derived CD34+ cells transplanted in NSG mice
Experiment: Transplantation of transduced human HSPC in NSG mice
Type: in vivo, NOD-SCID-IL2Rg−/− (NSG) mice
Description: NOD-SCID-IL2Rg−/− (NSG) mice were purchased from Jackson laboratory. All animal procedures were performed according to protocols approved by the Animal Care and Use Committee of the Ospedale San Raffaele (IACUC 661) and communicated to the Ministry of Health and local authorities according to Italian law. […] After transduction, 1.3×10^5 cells were infused into the tail vein of sublethally irradiated 10-week-old NSG mice (radiation dose: 200 cGy for mice weighing 18-25 g and 220 cGy for mice above 25 g of weight). Transduced and untransduced cells were also cultured in vitro for 14 days for further analysis. In vitro cultured cells and BM cells isolated from transplanted mice at the time of sacrifice were then used to quantify the VCN by qPCR.
For each mouse, 250 μL of peripheral blood were added to 15 μL of PBS containing 45 mg/mL EDTA. For immunostaining, a known volume of whole blood (100 μL) was first incubated with anti-human FcγIII/II receptor (Cd16/Cd32) blocking antibodies for 15 min at 4° C. and then incubated in the presence of monoclonal antibodies (for antibodies, see Table 1) for 20 min at 4° C. Erythrocytes were removed by lysis with the TQ-Prep workstation (Beckman-Coulter) in the presence of an equal volume of FBS (100 μL) to protect white blood cells.
BM cells were obtained by flushing the femurs in PBS 2% FBS solution. Cells (1×10^6 cells) were washed, resuspended in 100 μL of PBS containing 2% FBS, and incubated with anti-human receptor (Cd16/Cd32) blocking antibodies for 15 min at 4° C. Staining was then performed with monoclonal antibodies (for antibodies, see Table 1) for 20 min at 4° C. Cells were washed and finally resuspended in PBS containing 2% FBS.
Spleens were first smashed and the resulting cell suspension was passed through 40 μm nylon filter and washed in cold phosphate buffered saline (PBS) containing 2 mM EDTA and 0.5% bovine serum albumin (BSA). Cells were incubated with anti-human receptor (Cd16/Cd32) blocking antibodies for 15 min at 4° C. and then stained with anti-human monoclonal antibodies (for antibodies, see Table 1) for 20 min at 4° C. Cells were finally washed and resuspended in PBS containing 2% FBS.

CO[C@H]1C[C@@H]2CC[C@@H](C)[C@@](O)(O2)C(=O)C(=O)N2CCCC[C@H]2C(=O)O[C@H]([C@H](C)C[C@@H]2CC[C@@H](O)[C@H](OC)C2)CC(=O)[C@H](C)/C=C(\C)[C@@H](O)[C@@H](OC)C(=O)[C@H](C)C[C@H](C)/C=C/C=C/C=C/1C [rapamycin, Rapamycin]
overall percentage of GFP+ cells in the spleen (20 weeks post-transplant (FIG. 22H), DMSO 49.0±5): 80.8±1%
GFP+/hCD45+ cells in peripheral blood (NSG mice, 11 weeks after transplant (FIG. 22C), DMSO 48±6): 78±2%
VCN in the BM cells (NSG mice, 20 weeks post-transplant, DMSO 0.9±0.2): 3.6±0.4
levels of engraftment in the BM with respect to controls (in words) (NSG mice, 20 weeks post-transplant, p<0.047 v. DMSO): modest but statistically significant increase
